Each structure is given as a SMILES string.

What all share (format): cell-based
For experiment [1], the system named is LS174 cells. Briefly: Caspase 3/7 activity (Caspase-Glo 3/7). The note with it: hypoxic cancer cells. The protocol: Quantification of the caspase 3/7 activity was done using a luciferin/luciferase based assay (Caspase-Glo 3/7 kit, Promega) according to the manufacture's instructions. Each condition was performed 8 times and the entire experiment was done 3 times. Significant differences are based on the Student's t test * p < 0.005. To test ABT-737 (Hickman et al., 2008, J Neurophysiol 99, 1515), LS 174 cells were cultured for 72 h in normoxia (N) or hypoxia 1% O2 (H 1 %) and ABT was then added for 24 h at different concentrations (0, 2 or 10 µM). Staurosporine (1 µg/ml) was added (+ Stau) 4 h prior to assay for caspase 3/7 activity, […]

For experiment [2], the system named is LS174 cells. Kind of experiment: Immunofluorescence of cytochrome c release. The following applies: with staurosporine. How it is done:
Cells were grown on glass coverslips and then fixed in 3.3% paraformaldehyde for 30 min at room temperature (RT), permeabilized with 0.2% Triton X-100 for 5 min. Cells were blocked with phosphate-buffered saline (PBS) containing 0.2% gelatin, 2% bovine serum albumin for 30 min at RT, and incubated with anti-rabbit HIF-1α (1/1000 - described in "Immunoblotting"), and/or anti-mouse cyto. c (1/500 - BD Bioscience) or anti-rabbit VDAC (1/400 - Abcam) antibodies in PBS for 3 h at RT. After washing, cells were incubated in the presence of a biotinylated anti-mouse secondary antibody conjugated to Alexa 594 (1:400) or anti-rabbit secondary antibody conjugated to Alexa 488 (1:400) for 1 h at RT (Invitrogen). After washing, coverslips were mounted in Cytifluor (Amersham Biosciences), detection of the fluorescence was performed with a Leica DMR fluorescence microscope, and images were recorded using RSImage software.

Experiment [3] has as its system LS174 cells. Briefly: Flow cytometric analysis of mitochondrial transmembrane potential (ΔΨm) with DiOC6(3). The note with it: staurosporine 1 µM for 18h. How it is done: The following fluorochromes were employed to determine mitochondrial function by cytofluorometry: 3,3'-dihexyloxacarbocyanine iodide [DiOC6(3), 50 nM (Invitrogen) for mitochondrial transmembrane potential (ΔΨm) quantification and propidium iodide (PI; 1 µg/ml (Sigma) for determination of cell viability (all from Molecular Probes). Cells were trypsinized and labeled with the fluorochromes at 37°C, followed by cytofluorometric analysis with a fluorescence-activated cell sorter (FACS) scan (Becton Dickinson). The fluorescence intensity of DiOC6 (3) (which measures ΔΨm) is plotted against the propidium iodide signal ([…]). The CellQuest software (Becton Dickinson) was used for the data analysis.

As for `COc1cc([C@@H]2c3cc4c(cc3[C@@H](O[C@@H]3O[C@@H]5CO[C@@H](C)O[C@H]5[C@H](O)[C@H]3O)[C@H]3COC(=O)[C@H]23)OCO4)cc(OC)c1O` [etoposide], the induced apoptosis entry in experiment [1] is “resistant”.

With `CN[C@@H]1C[C@H]2O[C@@](C)([C@@H]1OC)n1c3ccccc3c3c4c(c5c6ccccc6n2c5c31)C(=O)NC4` [staurosporine], the results for the “release of mitochondrial cytochrome c into the cytoplasm” value in experiment [2] (hypoxic cells with enlarged mitochondria) and in experiment [2] (normoxia) were “do not show release of cyto. c” and “released mitochondrial cytochrome c (cyto. c) into the cytoplasm”, respectively. The induced apoptosis entry in experiment [1] is recorded as “resistant”. The ΔΨm result in experiment [3] (hypoxia 1 % O2 for 72h) is listed as “remained unaffected”; in experiment [3] (normoxia), “decreased”.

Source of the values: EP2525224A1, “VDAC1-S as a cell marker” (Centre National de la Recherche Scientifique, priority 2011, dated 2012).
